Several values for one entry are separate records, joined by “and”; a condition that tells them apart may be missing. Equal values may be shown once. Toxic doses and inconclusive results are not listed.
Tested on: L1210 leukemia ip in BDF1 mice, survival T/C
Assay: NCI In Vivo Anticancer Drug Screen. Data for tumor model L1210 Leukemia (intraperitoneal) in B6D2F1 (BDF1) mice
Conditions: endpoint: mean survival time, higher = longer survival
Procedure, shortened: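 Transplantable tumor model; survival measured in treated vs vehicle control mice. Value = treated/control.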

[1] = dose: 100.0 mg/kg/injection, schedule: Q01DX001 (ip), vehicle: carboxymethylcellulose (CMC)
[2] = dose: 100.0 mg/kg/injection, schedule: Q04DX003 (ip), vehicle: saline with Tween-80
[3] = dose: 200.0 mg/kg/injection, schedule: Q04DX003 (ip), vehicle: saline with Tween-80
[4] = dose: 400.0 mg/kg/injection, schedule: Q04DX003 (ip), vehicle: saline with Tween-80
[5] = dose: 100.0 mg/kg/injection, schedule: Q01DX009 (ip), vehicle: saline with Tween-80
[6] = dose: 200.0 mg/kg/injection, schedule: Q01DX009 (ip), vehicle: saline with Tween-80
[7] = dose: 50.0 mg/kg/injection, schedule: Q01DX009 (ip), vehicle: saline with Tween-80
[8] = dose: 100.0 mg/kg/injection, schedule: Q01DX001 (ip), vehicle: saline with Tween-80
[9] = dose: 200.0 mg/kg/injection, schedule: Q01DX001 (ip), vehicle: saline with Tween-80
[10] = dose: 100.0 mg/kg/injection, schedule: Q01DX009 (ip), vehicle: Klucel (hydroxypropylcellulose) (HPC)
[11] = dose: 200.0 mg/kg/injection, schedule: Q01DX009 (ip), vehicle: Klucel (hydroxypropylcellulose) (HPC)
[12] = dose: 400.0 mg/kg/injection, schedule: Q01DX009 (ip), vehicle: Klucel (hydroxypropylcellulose) (HPC)

## CC(C)(C)C1CCC(NC(=O)N(CCCl)N=O)CC1 (stereo not drawn)
dose: 16.0 mg/kg/injection, schedule: Q01DX001 (ip), vehicle: other
  T/C: 116 % of control
dose: 125.0 mg/kg/injection, schedule: Q01DX001 (ip), vehicle: other
  T/C: 198 % of control
dose: 177.0 mg/kg/injection, schedule: Q01DX001 (ip), vehicle: other
  T/C: 264 % of control
dose: 250.0 mg/kg/injection, schedule: Q01DX001 (ip), vehicle: other
  T/C: 259 % of control and 283 % of control
dose: 354.0 mg/kg/injection, schedule: Q01DX001 (ip), vehicle: other
  T/C: 272 % of control
dose: 375.0 mg/kg/injection, schedule: Q01DX001 (ip), vehicle: other
  T/C: 275 % of control
dose: 500.0 mg/kg/injection, schedule: Q01DX001 (ip), vehicle: other
  T/C: 200 % of control and 317 % of control
dose: 708.0 mg/kg/injection, schedule: Q01DX001 (ip), vehicle: other
  T/C: 106 % of control
dose: 750.0 mg/kg/injection, schedule: Q01DX001 (ip), vehicle: other
  T/C: 170 % of control and 252 % of control
dose: 1000.0 mg/kg/injection, schedule: Q01DX001 (ip), vehicle: other
  T/C: 86 % of control
dose: 1250.0 mg/kg/injection, schedule: Q01DX001 (ip), vehicle: other
  T/C: 219 % of control
dose: 2000.0 mg/kg/injection, schedule: Q01DX001 (ip), vehicle: other
  T/C: 98 % of control

## C=CCCCCCCCCC(=O)O (tested in a mixture with another compound)
dose: 10.0 mg/kg/injection, schedule: Q01DX001 (ip), vehicle: carboxymethylcellulose (CMC)
  T/C: 93 % of control
dose: 20.0 mg/kg/injection, schedule: Q01DX001 (ip), vehicle: carboxymethylcellulose (CMC)
  T/C: 104 % of control
dose: 40.0 mg/kg/injection, schedule: Q01DX001 (ip), vehicle: carboxymethylcellulose (CMC)
  T/C: 106 % of control
dose: 80.0 mg/kg/injection, schedule: Q01DX001 (ip), vehicle: carboxymethylcellulose (CMC)
  T/C: 101 % of control
[1]
  T/C: 97 % of control

## COc1ccccc1/C=N\NC(=S)Nc1ccc(F)cc1
dose: 60.0 mg/kg/injection, schedule: Q01DX Z (oral), vehicle: methylcellulose (MC)
  T/C: 106 % of control
dose: 120.0 mg/kg/injection, schedule: Q01DX Z (oral), vehicle: methylcellulose (MC)
  T/C: 90 % of control
dose: 240.0 mg/kg/injection, schedule: Q01DX Z (ip), vehicle: methylcellulose (MC)
  T/C: 92 % of control
dose: 240.0 mg/kg/injection, schedule: Q01DX Z (oral), vehicle: methylcellulose (MC)
  T/C: 96 % of control
dose: 480.0 mg/kg/injection, schedule: Q01DX Z (ip), vehicle: methylcellulose (MC)
  T/C: 91 % of control
dose: 480.0 mg/kg/injection, schedule: Q01DX Z (oral), vehicle: methylcellulose (MC)
  T/C: 93 % of control

## O=S(=O)(c1ccccc1)C(CCCC(C(O)(c1ccccc1)c1ccccc1)S(=O)(=O)c1ccccc1)C(O)(c1ccccc1)c1ccccc1 (stereo not drawn)
[2]
  T/C: 98 % of control
[3]
  T/C: 100 % of control
[4]
  T/C: 105 % of control

## CN(C(=O)COc1ccccc1)c1ccc([N+](=O)[O-])cc1
[5]
  T/C: 95 % of control
[6]
  T/C: 93 % of control
dose: 400.0 mg/kg/injection, schedule: Q01DX009 (ip), vehicle: saline with Tween-80
  T/C: 95 % of control

## CC1(C)OC2C(C(=O)O)OC(n3cnc4c(N)ncnc43)C2O1 (stereo not drawn)
dose: 100.0 mg/kg/injection, schedule: Q01DX005 (ip), vehicle: saline
  T/C: 102 % of control
dose: 200.0 mg/kg/injection, schedule: Q01DX005 (ip), vehicle: saline
  T/C: 104 % of control

## O=C(COc1cccc(Cl)c1)Nc1cccc(NC(=O)c2cccc(S(=O)(=O)F)c2)c1
[1]
  T/C: 88 % of control
dose: 200.0 mg/kg/injection, schedule: Q01DX001 (ip), vehicle: carboxymethylcellulose (CMC)
  T/C: 88 % of control
dose: 400.0 mg/kg/injection, schedule: Q01DX001 (ip), vehicle: carboxymethylcellulose (CMC)
  T/C: 97 % of control

## O=C(N/N=C\c1ccc(/C=N\NC(=O)c2ccc(O)cc2)cc1)c1ccc(O)cc1
[7]
  T/C: 112 % of control
[5]
  T/C: 94 % of control
[6]
  T/C: 105 % of control

## COCOCP(=O)(OC)OC
dose: 100.0 mg/kg/injection, schedule: Q01DX001 (ip), vehicle: acetone
  T/C: 102 % of control
dose: 100.0 mg/kg/injection, schedule: Q04DX003 (ip), vehicle: acetone
  T/C: 106 % of control
dose: 200.0 mg/kg/injection, schedule: Q01DX001 (ip), vehicle: acetone
  T/C: 98 % of control
dose: 200.0 mg/kg/injection, schedule: Q04DX003 (ip), vehicle: acetone
  T/C: 98 % of control
dose: 400.0 mg/kg/injection, schedule: Q01DX001 (ip), vehicle: acetone
  T/C: 95 % of control
dose: 400.0 mg/kg/injection, schedule: Q04DX003 (ip), vehicle: acetone
  T/C: 92 % of control

## CCOc1ccc(Nc2cc([N+](=O)[O-])ccc2C(=O)O)cc1
dose: 25.0 mg/kg/injection, schedule: Q04DX003 (ip), vehicle: saline with Tween-80
  T/C: 101 % of control
[7]
  T/C: 103 % of control
dose: 50.0 mg/kg/injection, schedule: Q04DX003 (ip), vehicle: saline with Tween-80
  T/C: 95 % of control
[5]
  T/C: 109 % of control
[2]
  T/C: 107 % of control
[6]
  T/C: 98 % of control
[3]
  T/C: 93 % of control

## C1CC2C(CCCC23OCCO3)C2(C1)OCCO2 (stereo not drawn)
dose: 100.0 mg/kg/injection, schedule: Q01DX009 (ip), vehicle: saline
  T/C: 115 % of control and 111 % of control
dose: 100.0 mg/kg/injection, schedule: Q04DX003 (ip), vehicle: saline
  T/C: 94 % of control and 99 % of control
dose: 200.0 mg/kg/injection, schedule: Q01DX009 (ip), vehicle: saline
  T/C: 122 % of control and 107 % of control
dose: 200.0 mg/kg/injection, schedule: Q04DX003 (ip), vehicle: saline
  T/C: 112 % of control and 101 % of control
dose: 400.0 mg/kg/injection, schedule: Q01DX009 (ip), vehicle: saline
  T/C: 108 % of control and 98 % of control
dose: 400.0 mg/kg/injection, schedule: Q04DX003 (ip), vehicle: saline
  T/C: 109 % of control and 97 % of control

## Cc1[nH]cnc1C(c1ccccc1)c1ccccc1
[8]
  T/C: 108 % of control
[9]
  T/C: 100 % of control

## CCCCC(NC(C)=O)C(=O)O (stereo not drawn)
[10]
  T/C: 96 % of control and 100 % of control
dose: 100.0 mg/kg/injection, schedule: Q04DX003 (ip), vehicle: Klucel (hydroxypropylcellulose) (HPC)
  T/C: 90 % of control
[11]
  T/C: 86 % of control and 97 % of control
dose: 200.0 mg/kg/injection, schedule: Q04DX003 (ip), vehicle: Klucel (hydroxypropylcellulose) (HPC)
  T/C: 97 % of control
[12]
  T/C: 88 % of control
dose: 400.0 mg/kg/injection, schedule: Q04DX003 (ip), vehicle: Klucel (hydroxypropylcellulose) (HPC)
  T/C: 90 % of control

## O=P(c1ccc(F)cc1)(c1ccc(F)cc1)c1ccc(F)cc1
dose: 12.5 mg/kg/injection, schedule: Q01DX009 (ip), vehicle: Klucel (hydroxypropylcellulose) (HPC)
  T/C: 101 % of control
dose: 25.0 mg/kg/injection, schedule: Q01DX009 (ip), vehicle: Klucel (hydroxypropylcellulose) (HPC)
  T/C: 103 % of control

## CCCCCOC(=O)CN(CC(=O)OCCCCC)c1ccccc1
[10]
  T/C: 88 % of control
[2]
  T/C: 101 % of control
[11]
  T/C: 99 % of control
[3]
  T/C: 98 % of control
[12]
  T/C: 91 % of control
[4]
  T/C: 95 % of control

## O=C(N/N=C\c1ccc(F)cc1)N/N=C/c1ccc(F)cc1
dose: 100.0 mg/kg/injection, schedule: Q04DX002 (ip), vehicle: saline with Tween-80
  T/C: 93 % of control
dose: 200.0 mg/kg/injection, schedule: Q04DX002 (ip), vehicle: saline with Tween-80
  T/C: 96 % of control
dose: 400.0 mg/kg/injection, schedule: Q04DX002 (ip), vehicle: saline with Tween-80
  T/C: 104 % of control

## CC1(C(Cl)Cl)CCCCC1=O (stereo not drawn)
dose: 5.0 mg/kg/injection, schedule: Q01DX001 (ip), vehicle: saline
  T/C: 95 % of control
dose: 10.0 mg/kg/injection, schedule: Q01DX001 (ip), vehicle: saline
  T/C: 96 % of control
dose: 20.0 mg/kg/injection, schedule: Q01DX001 (ip), vehicle: saline
  T/C: 109 % of control
dose: 40.0 mg/kg/injection, schedule: Q01DX001 (ip), vehicle: saline
  T/C: 100 % of control
dose: 80.0 mg/kg/injection, schedule: Q01DX001 (ip), vehicle: saline
  T/C: 97 % of control
dose: 100.0 mg/kg/injection, schedule: Q01DX001 (ip), vehicle: saline
  T/C: 104 % of control

## NNC(=O)C1CC2C=CCC(C2)C1 (stereo not drawn)
[8]
  T/C: 98 % of control
[9]
  T/C: 92 % of control
